Laboratory results taken from ChEMBL document CHEMBL3745599, “The anti-tumor activity and mechanism of alkaloids from Aconitum szechenyianum Gay” (Bioorg Med Chem Lett, 2016).
Calls of active or inactive are those of the source. The calls are words filed in the database; no cut-off is given here.

Legend:
[1] = test system: HepG2; test: Antiproliferative activity against human HepG2 cells assessed as cell viability at 100 to 1600 ug/ml after 44 hrs by MTT assay; type: functional, cell-based
[2] = test system: A549; test: Antiproliferative activity against human A549 cells assessed as cell viability at 100 to 1600 ug/ml after 44 hrs by MTT assay; type: functional, cell-based
[3] = test system: HeLa; test: Antiproliferative activity against human HeLa cells assessed as cell viability at 100 to 1600 ug/ml after 44 hrs by MTT assay; type: functional, cell-based
[4] = Cytotoxicity against HEK293A cells assessed as cell viability at 100 to 800 ug/ml after 44 hrs by MTT assay; type: cell-based; conditions: human, hek293-a
[5] = Cytotoxicity against HEK293A cells assessed as cell viability at 1600 ug/ml after 44 hrs by MTT assay; type: cell-based; conditions: human, hek293-a
[6] = test system: A549; test: Induction of apoptosis in human A549 cells assessed as change from fusiform shape to round shape cell at 100 to 800 ug/ml after 24 hrs by inverted phase contrast microscopic analysis; type: functional, cell-based
[7] = test system: A549; test: Induction of apoptosis in human A549 cells assessed as cell shrinkage at 100 to 800 ug/ml after 24 hrs by inverted phase contrast microscopic analysis; type: functional, cell-based
[8] = test system: A549; test: Induction of apoptosis in human A549 cells assessed as appearance of loosely arranged cells at 100 to 800 ug/ml after 24 hrs by inverted phase contrast microscopic analysis; type: functional, cell-based
[9] = test system: A549; test: Induction of apoptosis in human A549 cells assessed as change in cytoplasmic vacuole at 100 to 800 ug/ml after 24 hrs by inverted phase contrast microscopic analysis; type: functional, cell-based
[10] = test system: A549; test: Induction of apoptosis in human A549 cells assessed as condensed chromatin at 100 to 800 ug/ml after 24 hrs by Hoechst 33258 staining-based fluorescence microscopic analysis; type: functional, cell-based
[11] = test system: A549; test: Induction of apoptosis in human A549 cells assessed as nuclear fragmentation at 100 to 800 ug/ml after 24 hrs by Hoechst 33258 staining-based fluorescence microscopic analysis; type: functional, cell-based
[12] = test system: A549; test: Induction of apoptosis in human A549 cells after 24 hrs by inverted phase contrast microscopic analysis; type: functional, cell-based
[13] = test system: A549; test: Upregulation of phosphorylated p38 expression in human A549 cells by Western blot analysis; type: functional, cell-based
[14] = test system: A549; test: Upregulation of p38 expression in human A549 cells by Western blot analysis; type: functional, cell-based
[15] = molecular target: T1, MAP kinase p38 (Homo sapiens) (UniProt O15264+Q15759+Q16539+P53778); test: Activation of p38 in human A549 cells assessed as upregulation of DR5 expression by Western blot analysis; type: cell-based
[16] = molecular target: T1, MAP kinase p38 (Homo sapiens); test: Activation of p38 in human A549 cells assessed as upregulation of TNF-R1 expression by Western blot analysis; type: cell-based
[17] = test system: A549; test: Induction of apoptosis in human A549 cells assessed as loss in mitochondrial membrane potential after 24 hrs by JC-1 dye-based fluorescence microscopic analysis; type: functional, cell-based
[18] = molecular target: T1, MAP kinase p38 (Homo sapiens); test: Activation of p38 in human A549 cells assessed as upregulation of Bax expression by Western blot analysis; type: cell-based
[19] = molecular target: T1, MAP kinase p38 (Homo sapiens); test: Activation of p38 in human A549 cells assessed as downregulation of Bcl2 expression at 100 to 800 ug/ml by Western blot analysis; type: cell-based
[20] = molecular target: T1, MAP kinase p38 (Homo sapiens); test: Activation of p38 in human A549 cells assessed as increase in Bax to Bcl2 ratio by Western blot analysis; type: cell-based
[21] = molecular target: T1, MAP kinase p38 (Homo sapiens); test: Activation of p38 in human A549 cells assessed as downregulation of cytochrome c expression in mitochondria by Western blot analysis
[22] = molecular target: T1, MAP kinase p38 (Homo sapiens); test: Activation of p38 in human A549 cells assessed as upregulation of cytochrome c expression in cytosol by Western blot analysis; type: cell-based
[23] = molecular target: T1, MAP kinase p38 (Homo sapiens); test: Activation of p38 in human A549 cells assessed as downregulation of procaspase-8 level by Western blot analysis; type: cell-based
[24] = molecular target: T1, MAP kinase p38 (Homo sapiens); test: Activation of p38 in human A549 cells assessed as downregulation of procaspase-3 level by Western blot analysis; type: cell-based
[25] = molecular target: T1, MAP kinase p38 (Homo sapiens); test: Activation of p38 in human A549 cells assessed as upregulation of cleaved caspase-9 level by Western blot analysis; type: cell-based

| SMILES | Activity [1] | Activity [2] | Activity [3] | Activity [4] | Activity [5] | Activity [6] | Activity [7] | Activity [8] | Activity [9] | Activity [10] | Activity [11] | Activity [12] | Activity [13] | Activity [14] | Activity [15] | Activity [16] | Activity [17] | Activity [18] | Activity [19] | Activity [20] | also measured |
| --- | --- | --- | --- | --- | --- | --- | --- | --- | --- | --- | --- | --- | --- | --- | --- | --- | --- | --- | --- | --- | --- |
| CCN1C[C@]2(COC)[C@H](O)C[C@@H](OC)[C@@]34[C@@H]5C[C@@]6(O)[C@H](OC(=O)c7ccccc7)[C@@H]5[C@@](OC(C)=O)([C@@H]([C@H](OC)[C@H]23)[C@H]14)[C@@H](O)[C@@H]6OC | Active | Active | Active | Non-toxic | Toxic | Active | Active | Active | Active | Active | Active | Dose-dependent effect | Dose-dependent effect | Dose-dependent effect | Dose-dependent effect | Dose-dependent effect | Dose-dependent effect | Dose-dependent effect | Active | Dose-dependent effect | Activity [21]: Dose-dependent effect; Activity [22]: Dose-dependent effect; Activity [23]: Dose-dependent effect; Activity [24]: Dose-dependent effect; Activity [25]: Active |
| CCN1C[C@]2(COC)CC[C@H](OC)[C@]34C1[C@H]([C@H](OC)[C@H]23)[C@]1(OC(C)=O)[C@H]2[C@@H](OC(=O)c3ccccc3)[C@](O)(C[C@H]24)[C@@H](OC)[C@@H]1O | Active | Active | Active | Non-toxic | Toxic | Active | Active | Active | Active | Active | Active | Dose-dependent effect | Dose-dependent effect | Dose-dependent effect | Dose-dependent effect | Dose-dependent effect | Dose-dependent effect | Dose-dependent effect | Active | Dose-dependent effect | Activity [21]: Dose-dependent effect; Activity [22]: Dose-dependent effect; Activity [23]: Dose-dependent effect; Activity [24]: Dose-dependent effect; Activity [25]: Active |
| CCN1C[C@@]2(COC)[C@H]3[C@@H](OC)[C@H]4C1[C@]3([C@@H](OC)C[C@H]2OC(C)=O)[C@@H]1C[C@@]2(O)[C@H](OC(=O)c3ccccc3)[C@@H]1[C@]4(OC(C)=O)[C@@H](O)[C@@H]2OC | Active | Active | Active | Non-toxic | Toxic | Active | Active | Active | Active | Active | Active | Dose-dependent effect | Dose-dependent effect | Dose-dependent effect | Dose-dependent effect | Dose-dependent effect | Dose-dependent effect | Dose-dependent effect | Active | Dose-dependent effect | Activity [21]: Dose-dependent effect; Activity [22]: Dose-dependent effect; Activity [23]: Dose-dependent effect; Activity [24]: Dose-dependent effect; Activity [25]: Active |
| C=C1[C@H]2C[C@@]3([C@@H]1O)[C@@H](CC2=O)[C@@]12C4[C@@H]3C[C@@H]1[C@@](C)(CC[C@@H]2O)CN4CC | Active | Active | Active | Non-toxic | Toxic | Active | Active | Active | Active | Active | Active | Dose-dependent effect | Dose-dependent effect | Dose-dependent effect | Dose-dependent effect | Dose-dependent effect | Dose-dependent effect | Dose-dependent effect | Active | Dose-dependent effect | Activity [21]: Dose-dependent effect; Activity [22]: Dose-dependent effect; Activity [23]: Dose-dependent effect; Activity [24]: Dose-dependent effect; Activity [25]: Active |
